PMC2394487, “Improved radiotracing of oxytocin receptor-expressing tumours using the new [^111In]-DOTA-Lys^8-deamino-vasotocin analogue” (British Journal of Cancer, 2003)
Residues, ends and D or L forms follow the SMILES beside them.

Key:
human V2 receptor = target: T1, human V2 receptor (Homo sapiens, UniProt P30518); assay: Competition binding, [3H]-AVP displacement, membranes of transfected COS7 cells
T1 construct: expressed in transfected cells; host or cells: COS7 (monkey kidney), transient electroporation
Procedure: (§1) To determine the LVT, dLVT and DOTA-dLVT affinity constants in comparison with OT, heterologous competition experiments were performed on membranes prepared from monkey kidney COS7 cells transiently transfected by means of electroporation with human OTR, V1a, V2 and V1b cDNAs as previously described ([Chini et al, 1995a]). Briefly, the transfected cells were homogenised with a Dounce glass apparatus, washed twice, and resuspended in binding buffer (50 mM Tris HCl, 5 mM MgCl, pH 7.4). Between 5 and 10 μg of membrane proteins were incubated with a fixed concentration of [^3H]OT (1–2 nM) for 30 min at 30°C in the presence of increasing concentrations of unlabelled peptides. Nonspecific binding was determined in the presence of 1 μM OT. Bound and free radioactivity were separated by filtration over Whatman GF/C filters presoaked in 10 mg ml^−1 BSA. The binding isotherms were analysed using GraphPad Prism.
(§2) Figure 3 Binding of LVT-derived peptides to human OT/AVP receptor subtypes. (A) Comparison of OT and DOTA-dLVT affinity for the human OTR. Competition experiments were performed using membrane preparations of COS7 cells transiently transfected with the wild-type OTR. [^3H]-OT was used at a concentration of 1–2 nM, and nonspecific binding was determined in the presence of […] OT. Data are expressed as the percentage of bound [^3H]-OT in the absence of cold competitor. The curves are representative of three independent assays performed in triplicate. (B) [^111In]-DOTA-dLVT saturation binding assay. The affinity of [^111In]-DOTA-dLVT for the human OTR was measured by incubating increasing amounts of labelled peptide to membrane preparations of COS7 cells transiently transfected with the wild-type OTR. The curve is representative of two independent assays performed in triplicate. (C) Receptor selectivity profile of DOTA-dLVT. Competition experiments were performed using membrane preparations of COS7 cells transiently transfected with the wild-type human OTR, and V1a, V1b and V2 receptors. The membrane preparations of OTR-expressing cells were incubated in the presence of a constant amount of ^3[H]OT (1–2 nM), and nonspecific binding was determined in the presence of 100 μM OT. The membrane preparations of cells expressing V1a, V1b and V2 receptors were incubated in the presence of a constant amount of ^3[H]AVP (2–4 nM), and nonspecific binding was determined in the presence of 100 μM AVP. The data are expressed as percentages of bound [^3H]-ligand in the absence of cold competitor. Each curve is the mean of triplicate determinations of a single representative experiment.

human V1b receptor = target: T2, human V1b receptor (Homo sapiens, UniProt P47901); assay: as above
T2 construct: expressed in transfected cells; host or cells: COS7 (monkey kidney), transient electroporation
T2 sequence (P47901 1-424): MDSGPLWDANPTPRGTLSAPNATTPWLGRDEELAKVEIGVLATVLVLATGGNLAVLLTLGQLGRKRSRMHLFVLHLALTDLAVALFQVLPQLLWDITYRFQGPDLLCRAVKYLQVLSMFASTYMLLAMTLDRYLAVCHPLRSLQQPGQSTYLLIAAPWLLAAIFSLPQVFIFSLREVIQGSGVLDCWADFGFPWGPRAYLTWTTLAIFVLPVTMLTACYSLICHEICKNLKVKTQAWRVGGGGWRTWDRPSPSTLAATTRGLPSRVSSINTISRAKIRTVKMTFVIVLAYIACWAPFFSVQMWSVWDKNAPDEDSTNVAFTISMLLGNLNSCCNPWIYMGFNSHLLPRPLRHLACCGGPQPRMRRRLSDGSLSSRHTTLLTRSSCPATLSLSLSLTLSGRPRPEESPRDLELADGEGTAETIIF
Procedure: as §1, §2

human V1a receptor = target: T3, human V1a receptor (Homo sapiens, UniProt P37288); assay: as above
T3 construct: expressed in transfected cells; host or cells: COS7 (monkey kidney), transient electroporation
Procedure: as §1, §2

[1] = test system: OTR-positive cells (MCF7, TS/A, MOG-U-V-W); assay: Displacement of [111In]-DOTA-dLVT binding from intact tumour cells by cold peptides; type: cell-based; settings: 5 min preincubation with 100 μM and 1 mM nonradioactive peptide
Procedure: Binding specificity was determined by evaluating radioactive displacement. Briefly, the cell suspension was incubated for 5 min in the presence of LVT, dLVT or OT 100 μM and 1 mM, or in the presence of unrelated peptides (somatostatin 100 nM and 1 μM, and hexarelin 1 μM) followed by 20 min of incubation with 1 μM [^111In]-DOTA-dLVT. The cells were then centrifuged and washed twice as described above. The activity of the two different agonists and the unrelated peptides in competing with the radioligand was evaluated by measuring cell-bound radioactivity. All of the experiments were performed in triplicate. The statistical analysis was carried out using ANOVA, with a significance cutoff point of 0.05.

human OTR fused to EGFP = target: T4, human OTR fused to EGFP (Homo sapiens, UniProt P30559); assay: Peptide-induced receptor internalisation, confocal microscopy, HEK293 cells; type: cell-based; settings: peptide 10^−6 M
T4 construct: expressed in transfected cells; host or cells: HEK293, stably transfected
T4 sequence (P30559 1-389): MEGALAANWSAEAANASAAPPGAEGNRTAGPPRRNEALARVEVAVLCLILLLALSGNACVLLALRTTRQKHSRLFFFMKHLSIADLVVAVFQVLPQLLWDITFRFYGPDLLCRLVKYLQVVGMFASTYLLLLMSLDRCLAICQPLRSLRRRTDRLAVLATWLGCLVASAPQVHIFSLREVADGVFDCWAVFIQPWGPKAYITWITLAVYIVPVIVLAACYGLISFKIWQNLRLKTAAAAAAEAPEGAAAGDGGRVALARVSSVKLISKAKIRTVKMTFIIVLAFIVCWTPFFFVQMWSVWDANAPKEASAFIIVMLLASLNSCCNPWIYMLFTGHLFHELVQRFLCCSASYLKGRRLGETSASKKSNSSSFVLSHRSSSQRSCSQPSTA
Procedure: HEK293 cells stably transfected with the human OTR fused to EGFP were grown in six-well dishes, washed twice in serum-free medium, and left to equilibrate for 30 min at 37°C. Peptides were then added at a final concentration of 10^−6 M. At fixed time intervals (5, 15, 30 and 60 min), the cells were washed twice with 10 mM sodium phosphate buffer, pH 7.4, containing 150 mM NaCl (LS buffer), fixed for 20 min at room temperature with 4% (w v^−1) paraformaldehyde, and mounted on glass slides with 90% (v v^−1) glycerol in PBS. The slides were observed under an MRC1024 BioRad confocal microscope.
To assess whether LVT, dLVT and DOTA-dLVT behave like OT to induce receptor internalisation, we applied them to HEK293 cells stably expressing a human OTR C-terminally tagged with the green fluorescent protein EGFP ([Guzzi et al, 2002]; [Rimoldi et al, 2003]).
Figure 4 Laser-scanning confocal microscopy analysis of peptide-induced receptor internalisation. Receptor internalisation was investigated in HEK293 cells stably transfected with the human OTR bearing the EGFP fused at its C-terminus. The cells were grown on coverslips and incubated in serum-free medium for 30 min (Bas), after which the peptides were added at a final concentration of 10^−6 M and the coverslips were fixed at 1, 5, 15, 30 and 60 min.

human OTR = target: T5, human OTR (Homo sapiens, UniProt P30559); assay: Heterologous competition binding, [3H]-OT displacement, membranes of transfected COS7 cells; settings: displacement of [3H]-OT; mean±s.e. of three experiments
T5 construct: expressed in transfected cells; host or cells: COS7 (monkey kidney), transient electroporation
T5 sequence (P30559 1-389): T4 sequence (P30559 1-389)
Procedure: as §1
LVT, dLVT and DOTA-dLVT affinities for the human OTR were determined by means of heterologous competition experiments on membranes prepared from transiently transfected COS7 cells using [^3H]-OT as radioligand.
Figure 3 Binding of LVT-derived peptides to human OT/AVP receptor subtypes. (A) Comparison of OT and DOTA-dLVT affinity for the human OTR. […] [^3H]-OT was used at a concentration of 1–2 nM, and nonspecific binding was determined in the presence of […] OT. Data are expressed as the percentage of bound [^3H]-OT in the absence of cold competitor. […] The affinity of [^111In]-DOTA-dLVT for the human OTR was measured by incubating increasing amounts of labelled peptide to membrane preparations of COS7 cells transiently transfected with the wild-type OTR. […] The membrane preparations of OTR-expressing cells were incubated in the presence of a constant amount of ^3[H]OT (1–2 nM), and nonspecific binding was determined in the presence of 100 μM OT. The membrane preparations of cells expressing V1a, V1b and V2 receptors were incubated in the presence of a constant amount of ^3[H]AVP (2–4 nM), and nonspecific binding was determined in the presence of 100 μM AVP. […]

[2] = displacement of [3H]-AVP, mean±s.e. of three experiments

T3 sequence (P37288 whole entry): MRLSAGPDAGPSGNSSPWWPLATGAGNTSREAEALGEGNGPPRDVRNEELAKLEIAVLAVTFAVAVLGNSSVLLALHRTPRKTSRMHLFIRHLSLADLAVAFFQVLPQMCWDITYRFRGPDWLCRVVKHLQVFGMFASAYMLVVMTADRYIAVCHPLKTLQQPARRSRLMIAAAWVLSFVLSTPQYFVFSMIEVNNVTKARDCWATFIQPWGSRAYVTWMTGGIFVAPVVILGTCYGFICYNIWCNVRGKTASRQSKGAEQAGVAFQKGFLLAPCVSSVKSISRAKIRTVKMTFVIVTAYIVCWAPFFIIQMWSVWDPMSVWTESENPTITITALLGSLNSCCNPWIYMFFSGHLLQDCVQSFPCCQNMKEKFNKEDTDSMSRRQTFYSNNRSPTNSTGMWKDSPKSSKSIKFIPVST
T1 sequence (P30518 whole entry): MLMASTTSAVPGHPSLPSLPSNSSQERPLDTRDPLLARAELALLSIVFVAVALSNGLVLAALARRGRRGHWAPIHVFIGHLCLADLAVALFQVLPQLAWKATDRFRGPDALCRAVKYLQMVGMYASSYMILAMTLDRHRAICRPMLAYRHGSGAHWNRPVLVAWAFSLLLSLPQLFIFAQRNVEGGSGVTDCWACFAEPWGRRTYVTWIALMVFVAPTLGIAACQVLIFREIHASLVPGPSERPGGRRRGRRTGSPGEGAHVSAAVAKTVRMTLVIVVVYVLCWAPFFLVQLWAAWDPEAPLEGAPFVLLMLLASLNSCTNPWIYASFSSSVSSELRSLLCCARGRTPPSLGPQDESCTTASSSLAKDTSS

Row | concentrations at which V2 receptor binds the peptide (human V2 receptor; in words) | lower affinity at V1b receptor relative to human OTR (human V1b receptor) [fold] | lower affinity at V1a receptor relative to human OTR (human V1a receptor) [fold] | time after application at which punctate fluorescence (endocytotic vesicles) is seen (human OTR fused to EGFP) [min] | Ki (human V2 receptor; [2]) [µM] | Ki (human V1b receptor; [2]) [µM] | Ki (human V1a receptor; [2]) [µM] | Ki (human OTR) [µM] | Compound | specific [111In]-DOTA-dLVT binding displaced [1] | receptor internalisation (result in words) (human OTR fused to EGFP; up to 60 min)
1 | only at micromolar concentrations | 10 | 10 | 5 | – | – | – | – | CC[C@H](C)[C@@H]1NC(=O)[C@H](Cc2ccc(O)cc2)NC(=O)[C@@H](N)CSSC[C@@H](C(=O)N2CCC[C@H]2C(=O)N[C@@H](CCCCN)C(=O)NCC(N)=O)NC(=O)[C@H](CC(N)=O)NC(=O)[C@H](CCC(N)=O)NC1=O [LVT, [Lys8]-vasotocin, reference compound] (HELM PEPTIDE1{C.Y.I.Q.N.C.P.K.G.[am]}$PEPTIDE1,PEPTIDE1,1:R3-6:R3$$$V2.0; C-terminus assumed; bridges inferred) | more than 92% | rapid and persistent receptor internalisation
2 | – | – | – | – | 3.74 ± 0.4 | 0.0717 ± 0.002 | 0.0355 ± 0.0062 | 0.00388 ± 0.000585 | CC[C@H](C)[C@@H]1NC(=O)[C@H](Cc2ccc(O)cc2)NC(=O)CCSSC[C@@H](C(=O)N2CCC[C@H]2C(=O)N[C@@H](CCCCN)C(=O)NCC(N)=O)NC(=O)[C@H](CC(N)=O)NC(=O)[C@H](CCC(N)=O)NC1=O [dLVT, reference compound] (HELM PEPTIDE1{[O=C(CCS[*:3])[*:2]].Y.I.Q.N.C.P.K.G.[am]}$PEPTIDE1,PEPTIDE1,1:R3-6:R3$$$V2.0) | – | –
3 | – | – | – | – | – | – | – | – | oxytocin [OT] | more than 92% | –
